Target: T1, abc isoform of human TMEM16A channel expressed in CHO cells (Homo sapiens, UniProt Q5XXA6, DEL476-501)
T1 construct: expressed in transfected cells; host or cells: CHO cells, doxycycline-inducible expression under Blasticidin/Zeocin selection
T1 sequence (Q5XXA6 with tags, fused parts or gaps isoform Q5XXA6-5 DEL539-564): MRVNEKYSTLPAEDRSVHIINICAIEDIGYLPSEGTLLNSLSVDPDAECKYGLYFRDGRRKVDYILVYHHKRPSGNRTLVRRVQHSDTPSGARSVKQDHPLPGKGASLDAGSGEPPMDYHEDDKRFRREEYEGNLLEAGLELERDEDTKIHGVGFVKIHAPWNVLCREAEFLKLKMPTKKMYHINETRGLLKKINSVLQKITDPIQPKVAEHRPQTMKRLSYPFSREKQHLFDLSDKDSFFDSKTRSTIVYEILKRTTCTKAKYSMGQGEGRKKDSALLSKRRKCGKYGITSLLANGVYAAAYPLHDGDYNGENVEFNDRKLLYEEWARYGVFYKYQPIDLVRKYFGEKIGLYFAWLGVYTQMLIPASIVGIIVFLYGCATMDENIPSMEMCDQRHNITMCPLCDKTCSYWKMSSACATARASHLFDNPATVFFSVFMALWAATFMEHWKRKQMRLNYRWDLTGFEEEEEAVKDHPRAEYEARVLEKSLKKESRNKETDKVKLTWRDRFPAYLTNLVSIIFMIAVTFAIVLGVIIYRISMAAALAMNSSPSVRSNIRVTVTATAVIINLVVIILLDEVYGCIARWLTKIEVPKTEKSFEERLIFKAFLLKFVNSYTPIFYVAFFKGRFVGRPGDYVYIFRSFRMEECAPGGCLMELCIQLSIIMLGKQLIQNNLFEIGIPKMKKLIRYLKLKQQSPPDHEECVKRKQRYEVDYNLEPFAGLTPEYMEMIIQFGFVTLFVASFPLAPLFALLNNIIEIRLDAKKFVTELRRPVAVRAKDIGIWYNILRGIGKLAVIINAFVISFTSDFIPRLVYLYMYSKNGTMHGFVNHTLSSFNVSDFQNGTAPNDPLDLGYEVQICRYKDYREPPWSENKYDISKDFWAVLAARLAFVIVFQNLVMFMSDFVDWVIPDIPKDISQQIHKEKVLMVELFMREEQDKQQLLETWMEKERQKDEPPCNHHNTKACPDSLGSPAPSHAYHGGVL
Experiment: Automated patch clamping (QPatch) assay to measure TMEM16A activity in whole-cell
Format: cell-based
Details: for EC50: CHO cells expressing human TMEM16A (abc), whole-cell automated patch clamp, Hill fit, read-out: TMEM16A QPATCH assay EC50 V3 EC50; for Emax: CHO, maximum current at highest dose relative to reference potentiator at maximal concentration (upper limit) and vehicle (lower limit), read-out: TMEM16A QPATCH assay EC50 V3 Assay Window (% TMEM16A max activation)
Summary of the method: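 CHO cells with doxycycline-induced (1 μg/mL, 18-24 h) human TMEM16A abc isoform; QPatch whole-cell recording, hold −70 mV, step +70 mV 1500 ms, then −90 to +70 mV ramp. Compounds in 0.3% DMSO; EC50 by Hill fit; % max activation relative to vehicle baseline and reference potentiator maximum.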

Row | SMILES | EC50 [µM] | Emax [%]
1 | O=C(NC(C1CC1)C1CC1)c1nnc(-c2cccc(-c3ncc(C(=O)NC(C4CC4)C4CC4)o3)c2)[nH]1 [Example 12.8, N-(Dicyclopropylmethyl)-2-(3-(5-((Dicyclopropylmethyl)Carbamoyl)-4H-1,2,4-Triazol-3-Yl)Phenyl)Oxazole-5-Carboxamide] | 0.02 | 119
2 | COC(=O)[C@@H](NC(=O)c1cnc(-c2cccc(-c3nnc(C(=O)NC(C4CC4)C4CC4)[nH]3)c2)o1)C(C)C [Example 12.9, (S)-Methyl 2-(2-(3-(5-((Dicyclopropylmethyl)Carbamoyl)-4H-1,2,4-Triazol-3-Yl)Phenyl)Oxazole-5-Carboxamido)-3-Methylbutanoate] | 0.02 | 134
3 | COC(=O)[C@@H](NC(=O)c1cnc(-c2cccc(-c3nnc(C(=O)N[C@@H](C)C4CC4)[nH]3)c2)o1)C(C)(C)C [Example 12.10, (S)-Methyl 2-(2-(3-(5-(((S)-1-Cyclopropylethyl)Carbamoyl)-4H-1,2,4-Triazol-3-Yl)Phenyl)Oxazole-5-Carboxamido)-3,3-Dimethylbutanoate] | 0.19 | 92
4 | CC(C)[C@H](C)NC(=O)c1cnc(-c2cccc(-c3nnc(C(=O)N[C@@H](C)C4CC4)[nH]3)c2)o1 [Example 12.11] | 0.15 | 80
5 | CC(C)OC(=O)[C@@H](NC(=O)c1cnc(-c2cccc(-c3nnc(C(=O)N[C@@H](C)C4CC4)[nH]3)c2)o1)C(C)C [Example 12.12] | 0.19 | 92
6 | COC(=O)[C@H](CC(C)C)NC(=O)c1cnc(-c2cccc(-c3nnc(C(=O)N[C@@H](C)C4CC4)[nH]3)c2)o1 [Example 12.13] | 0.29 | 99
7 | CCOC(=O)[C@@H](NC(=O)c1cnc(-c2cccc(-c3nc(C(=O)NC(C4CC4)C(F)(F)F)n[nH]3)c2)o1)C(C)C (some centres unmarked) [Example 12.14] | 0.08 | 97
8 | C[C@H](NC(=O)c1nnc(-c2cccc(-c3ncc(C(=O)NC4(C5CC5)CC4)o3)c2)[nH]1)C1CC1 [Example 12.15] | 0.39 | 72
9 | C[C@H](NC(=O)c1nnc(-c2cccc(-c3ncc(C(=O)NC45CC6CC(CC(C6)C4)C5)o3)c2)[nH]1)C1CC1 [Example 12.16, (S)-N-(Adamantan-1-Yl)-2-(3-(5-((1-Cyclopropylethyl)Carbamoyl)-4H-1,2,4-Triazol-3-Yl)Phenyl)Oxazole-5-Carboxamide] | 0.42 | 85
10 | COC(=O)[C@H](CC1CCCCC1)NC(=O)c1cnc(-c2cccc(-c3nnc(C(=O)N[C@@H](C)C4CC4)[nH]3)c2)o1 [Example 12.17, (S)-Methyl 3-Cyclohexyl-2-(2-(3-(5-(((S)-1-Cyclopropylethyl)Carbamoyl)-4H-1,2,4-Triazol-3-Yl)Phenyl)Oxazole-5-Carboxamido)Propanoate] | 0.47 | 77
11 | C[C@H](NC(=O)c1cnc(-c2cccc(-c3nnc(C(=O)N[C@H](C)C4CC4)[nH]3)c2)o1)C1CC1 [Example 13.0, N-((S)-1-Cyclopropylethyl)-2-(3-(5-(((R)-1-Cyclopropylethyl)Carbamoyl)-4H-1,2,4-Triazol-3-Yl)Phenyl)Oxazole-5-Carboxamide] | 0.31 | 74
12 | C[C@@H](NC(=O)c1nnc(-c2cccc(-c3ncc(C(=O)NC(C4CC4)C4CC4)o3)c2)[nH]1)C1CC1 [Example 13.1, (R)-2-(3-(5-((1-Cyclopropylethyl)Carbamoyl)-4H-1,2,4-Triazol-3-Yl)Phenyl)-N-(Dicyclopropylmethyl)Oxazole-5-Carboxamide] | 0.11 | 88
13 | C[C@@H](NC(=O)c1n[nH]c(-c2cccc(-c3ncc(C(=O)N[C@H](C)C4CC4)o3)c2)n1)C1CC1 [Example 13.2, N-((R)-1-Cyclopropylethyl)-2-(3-(3-(((R)-1-Cyclopropylethyl)Carbamoyl)-1H-1,2,4-Triazol-5-Yl)Phenyl)Oxazole-5-Carboxamide] | 0.65 | 77
14 | CCC(CC)NC(=O)c1nnc(-c2cccc(-c3ncc(C(=O)NC(CC)CC)o3)c2)[nH]1 [Example 13.3, N-(Pentan-3-Yl)-2-(3-(5-(Pentan-3-Ylcarbamoyl)-1 H-1,2,4-Triazol-3-Yl)Phenyl)Oxazole-5-Carboxamide] | 0.05 | 95
15 | C[C@H](NC(=O)c1cnc(-c2cccc(-c3nnc(C(=O)NC4CCC(F)(F)CC4)[nH]3)c2)o1)C1CC1 [Example 13.4, (S)-N-(1-Cyclopropylethyl)-2-(3-(5-((4,4-Difluorocyclohexyl)Carbamoyl)-4H-1,2,4-Triazol-3-Yl)Phenyl)Oxazole-5-Carboxamide] | 0.94 | 80
16 | CCC(CC)NC(=O)c1cnc(-c2cccc(-c3nnc(C(=O)NCC4CCCCC4)[nH]3)c2)o1 [Example 13.5, 2-(3-(5-((Cyclohexylmethyl)Carbamoyl)-4H-1,2,4-Triazol-3-Yl)Phenyl)-N-(Pentan-3-Yl)Oxazole-5-Carboxamide] | 0.03 | 88
17 | CCOC(=O)[C@@H](NC(=O)c1nnc(-c2cccc(-c3ncc(C(=O)N[C@@H](C)C4CC4)o3)c2)[nH]1)C(C)C [Example 13.6, (S)-Ethyl 2-(5-(3-(5-(((S)-1-Cyclopropylethyl)Carbamoyl)Oxazol-2-Yl)Phenyl)-4H-1,2,4-Triazole-3-Carboxamido)-3-Methylbutanoate] | 0.37 | 97
18 | COC(=O)[C@@H](NC(=O)c1nc(-c2cccc(-c3ncc(C(=O)NC(C4CC4)C4CC4)o3)c2)n[nH]1)C(C)C [Example 13.7, (S)-Methyl 2-(3-(3-(5-((Dicyclopropylmethyl)Carbamoyl)Oxazol-2-Yl)Phenyl)-1H-1,2,4-Triazole-5-Carboxamido)-3-Methylbutanoate] | 0.47 | 121
19 | CCC(CC)NC(=O)c1cnc(-c2cccc(-c3nnc(C(=O)N[C@@H](C)C4CC4)[nH]3)c2)o1 [Example 14.0, (S)-2-(3-(5-((1-Cyclopropylethyl)Carbamoyl)-4H-1,2,4-Triazol-3-Yl)Phenyl)-N-(Pentan-3-Yl)Oxazole-5-Carboxamide] | 0.58 | 177
20 | CCC(CC)NC(=O)c1cnc(-c2cccc(-c3nc(C(=O)NC(CC)CC)n(CCN4CCCCC4)n3)c2)o1 [Example 15.0, N-(Pentan-3-Yl)-2-(3-(5-(Pentan-3-Ylcarbamoyl)-1-(2-(Piperidin-1-Yl)Ethyl)-1H-1,2,4-Triazol-3-Yl)Phenyl)Oxazole-5-Carboxamide] | 0.42 | 161
21 | CCC(CC)NC(=O)c1cnc(-c2cccc(-c3nc(C(=O)NC(CC)CC)n(CCOC)n3)c2)o1 [Example 15.1, 2-(3-(1-(2-Methoxyethyl)-5-(Pentan-3-Ylcarbamoyl)-1H-1,2,4-Triazol-3-Yl)Phenyl)-N-(Pentan-3-Yl)Oxazole-5-Carboxamide] | 0.24 | 155
22 | CCOC(=O)Cn1nc(-c2cccc(-c3ncc(C(=O)NC(CC)CC)o3)c2)nc1C(=O)NC(CC)CC [Example 15.2, Ethyl 2-(5-(Pentan-3-Ylcarbamoyl)-3-(3-(5-(Pentan-3-Ylcarbamoyl)Oxazol-2-Yl)Phenyl)-1 H-1,2,4-Triazol-1-Yl)Acetate] | 0.08 | 80
23 | CCC(CC)NC(=O)c1cnc(-c2cccc(-c3nc(C(=O)NC(CC)CC)n(CCN(C)C)n3)c2)o1 [Example 15.4, 2-(3-(1-(2-(Dimethylamino)Ethyl)-5-(Pentan-3-Ylcarbamoyl)-1H-1,2,4-Triazol-3-Yl)Phenyl)-N-(Pentan-3-Yl)Oxazole-5-Carboxamide] | 1 | 61
24 | CCC(CC)NC(=O)c1cnc(-c2cccc(-c3nnc(C(=O)NC(CC)CC)n3CCOC)c2)o1 [Example 15.5, 2-(3-(4-(2-Methoxyethyl)-5-(Pentan-3-Ylcarbamoyl)-4H-1,2,4-Triazol-3-Yl)Phenyl)-N-(Pentan-3-Yl)Oxazole-5-Carboxamide] | 0.44 | 83
25 | CCC(CC)NC(=O)c1cnc(-c2cccc(-c3nc(C(=O)NC(CC)CC)n(CCNCc4ccccc4)n3)c2)o1 [Example 15.6, 2-(3-(1-(2-(Benzylamino)Ethyl)-5-(Pentan-3-Ylcarbamoyl)-1H-1,2,4-Triazol-3-Yl)Phenyl)-N-(Pentan-3-Yl)Oxazole-5-Carboxamide] | 0.33 | 154

Reference: patent US20220306617A1, “SUBSTITUTED 1,3-PHENYL HETEROARYL DERIVATIVES AND THEIR USE IN THE TREATMENT OF DISEASE” (NOVARTIS AG, priority 2019, published 2022)
